Test results: patent US10179771B2 (GALAPAGOS NV, priority 2014, dated 2019)

What follows are molecules tested against T1, Recombinant human JAK2 catalytic domain (Homo sapiens, UniProt O60674) (assay: JAK2 inhibition assay (polyGT substrate / Ulight-JAK1 peptide assay)). Conditions: Comparative Compounds (Table VIII).
T1 construct: Recombinant human JAK2 catalytic domain (amino acids 808-1132; catalog number PV4210); GST; purchased Invitrogen PV4210
T1 sequence (O60674 808-1132): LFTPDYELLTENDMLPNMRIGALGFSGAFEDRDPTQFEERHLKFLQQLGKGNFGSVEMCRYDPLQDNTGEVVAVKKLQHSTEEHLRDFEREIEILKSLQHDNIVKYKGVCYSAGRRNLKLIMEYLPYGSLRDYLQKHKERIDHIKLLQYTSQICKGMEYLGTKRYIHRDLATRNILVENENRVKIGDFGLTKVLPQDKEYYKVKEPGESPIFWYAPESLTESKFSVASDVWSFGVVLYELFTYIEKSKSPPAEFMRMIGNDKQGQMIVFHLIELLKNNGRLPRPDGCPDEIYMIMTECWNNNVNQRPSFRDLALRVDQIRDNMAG
Format: biochemical
Method: Recombinant human JAK2 catalytic domain (amino acids 808-1132; catalog number PV4210) was purchased from Invitrogen. 0.025 mU of JAK2 is incubated with […] polyGT substrate (Sigma catalog number P0275) in kinase reaction buffer (5 mM MOPS pH 7.5, 9 mM MgAc, 0.3 mM EDTA, 0.06% Brij and 0.6 mM DTT, 1 μM non-radioactive ATP, 0.25 μCi ^33P-gamma-ATP (GE Healthcare, catalog number AH9968) final concentrations) with or without 5 μL containing test compound or vehicle (DMSO, 1% final concentration), in a total volume of 25 μL, in a polypropylene 96-well plate (Greiner, V-bottom). After 90 min at 30° C., reactions are stopped by adding of 25 μL/well of 150 mM phosphoric acid. All of the terminated kinase reaction is transferred to prewashed (75 mM phosphoric acid) 96 well filter plates (Perkin Elmer catalog number 6005177) using a cell harvester (Perkin Elmer). Plates are washed 6 times with 300 μL per well of a 75 mM phosphoric acid solution and the bottom of the plates is sealed. 40 μL/well of Microscint-20 is added, the top of the plates is sealed and readout is performed using the Topcount (Perkin Elmer). Kinase activity is calculated by subtracting counts per min (cpm) obtained in the presence of a positive control inhibitor (10 μM staurosporine) from cpm obtained in the presence of vehicle. The ability of a test compound to inhibit this activity is determined as:
[formula] • RFU test compound=RFU determined for sample with test compound present • RFU control=RFU determined for sample with positive control inhibitor • RFU vehicle=RFU determined in the presence of vehicle
Dose dilution series are prepared for the compounds enabling the testing of dose-response effects in the JAK2 assay and the calculation of the IC50 for each compound. Each compound is routinely tested at concentration of 20 μM followed by a 1/3 serial dilution, 8 points (20 μM-6.67 μM-2.22 μM-740 nM-247 nM-82 nM-27 nM-9 nM) in a final concentration of 1% DMSO. When potency of compound series increased, more dilutions are prepared and/or the top concentration is lowered (e.g. 5 μM, 1 μM).
Recombinant human JAK2 (catalytic domain, amino acids 866-1154; catalog number PV4210) was purchased from Invitrogen. 0.0125 mU of JAK2 was incubated with 25 nM Ulight-JAK1 (tyr1023) peptide (Perkin Elmer catalog number TRF0121) in kinase reaction buffer (25 mM HEPES pH7.0, 0.01% Triton X-100, 7.5 mM MgCl2, 2 mM DTT, 7.5 μM ATP) with or without 4 μL containing test compound or vehicle (DMSO, 1% final concentration), in a total volume of 20 μL, in a white 384 Opti plate (Perkin Elmer, catalog number 6007290). After 60 min at room temperature, reactions were stopped by adding 20 μL/well of detection mixture (1× detection buffer (Perkin Elmer, catalog number CR97-100C), 0.5 nM Europium-anti-phosphotyrosine (PT66) (Perkin Elmer, catalog number AD0068), 10 mM EDTA). Readout is performed using the Envision with excitation at 320 nm and measuring emission at 615 nm (Perkin Elmer). Kinase activity was calculated by subtracting relative fluorescence units (RFU) obtained in the presence of a positive control inhibitor (10 μM staurosporine) from RFU obtained in the presence of vehicle. The ability of a test compound to inhibit this activity was determined as: Percentage inhibition=((RFU determined for sample with test compound present−RFU determined for sample with positive control inhibitor) divided by (RFU determined in the presence of vehicle−RFU determined for sample with positive control inhibitor))*100.
Dose dilution series are prepared for compound enabling the testing of dose-response effects in the JAK2 assay and the calculation of the IC50 for the compound. Each compound is routinely tested at concentration of 20 μM followed by a 1/5 serial dilution, 10 points in a final concentration of 1% DMSO. When potency of compound series increases, more dilutions are prepared and/or the top concentration are lowered (e.g. 5 μM, 1 μM). […]
Work on CN(c1ccc2ncn(C)c2c1)c1ccc(C#N)cc1F [C, 3-fluoro-4-[methyl-(3-methylbenzimidazol-5-yl)amino]benzonitrile, reference compound] yielded an IC50 of over 500 nM.

Same assay, conditions: Illustrative Compounds of the invention (Table VII)
For CNC(=O)Nc1cc(Oc2cnc(C#N)cc2C)cc2c1ncn2C, the IC50 was 0.1 to 50 nM. CCc1cc(C#N)cc(F)c1N(C)c1cc(NC(=O)[C@@H]2C[C@@H]2F)c2ncn(C)c2c1 (racemic) [Cpd 7, N-(6-((4-cyano-2-ethyl-6-fluorophenyl)(methyl)amino)-1-methyl-1H-benzo[d]imidazol-4-yl)-2-fluorocyclopropanecarboxamide (1S,2S)/(1R,2R) racemic mixture] was tested, and the IC50 was 0.1 to 50 nM. CCc1cc(C#N)ncc1N(C)c1cc(NC(=O)C2CC2)c2ncn(C)c2c1 [Cpd 1, N-(6-((6-cyano-4-ethylpyridin-3-yl)(methyl)amino)-1-methyl-1H-benzo[d]imidazol-4-yl)cyclopropanecarboxamide] showed an IC50 of 0.1 to 50 nM. For CCc1cc(C#N)cc(F)c1Nc1cc(NC(=O)C2CC2)c2ncn(C)c2c1 [Cpd 2, N-(6-(4-cyano-2-ethyl-6-fluorophenylamino)-1-methyl-1H-benzo[d]imidazol-4-yl)cyclopropanecarboxamide], the IC50 was 0.1 to 50 nM. For CCc1cc(C#N)cc(F)c1N(C)c1cc(NC(=O)C2CC2)c2ncn(C)c2c1 [Cpd 3, N-(6-((4-cyano-2-ethyl-6-fluorophenyl)(methyl)amino)-1-methyl-1H-benzo[d]imidazol-4-yl)cyclopropanecarboxamide], the IC50 was 0.1 to 50 nM. For CCc1cc(C#N)ncc1N(C)c1cc(NC(=O)OC)c2ncn(C)c2c1 [Cpd 4, methyl 6-((6-cyano-4-ethylpyridin-3-yl)(methyl)amino)-1-methyl-1H-benzo[d]imidazol-4-ylcarbamate], the IC50 was 0.1 to 50 nM. CCc1cc(C#N)cc(F)c1N(C)c1cc(NC(=O)OC)c2ncn(C)c2c1 [Cpd 5, methyl 6-((4-cyano-2-ethyl-6-fluorophenyl)(methyl)amino)-1-methyl-1H-benzo[d]imidazol-4-ylcarbamate] showed an IC50 of 0.1 to 50 nM. With CCc1cc(C#N)ncc1Oc1cc(NC(=O)[C@H]2C[C@H]2F)c2ncn(C)c2c1 [Cpd 6, (1R,2R)-N-[6-[(6-cyano-4-ethyl-3-pyridyl)oxy]-1-methyl-benzimidazol-4-yl]-2-fluoro-cyclopropanecarboxamide] the IC50 was 0.1 to 50 nM. With CCc1cc(C#N)ncc1N(C)c1cc(NC(=O)[C@H]2C[C@H]2F)c2ncn(C)c2c1 [Cpd 8, (1R,2R)-N-(6-((6-cyano-4-ethylpyridin-3-yl)(methyl)amino)-1-methyl-1H-benzo[d]imidazol-4-yl)-2-fluorocyclopropanecarboxamide] the IC50 was 0.1 to 50 nM. Work on Cc1cc(C#N)ncc1N(C)c1cc(NC(=O)[C@H]2C[C@H]2F)c2ncn(C)c2c1 [Cpd 9, (1R,2R)-N-(6-((6-cyano-4-methylpyridin-3-yl)(methyl)amino)-1-methyl-1H-benzo[d]imidazol-4-yl)-2-fluorocyclopropanecarboxamide] yielded an IC50 of 0.1 to 50 nM. CCc1cc(C#N)ccc1Oc1cc(NC(=O)[C@H]2C[C@H]2F)c2ncn(C)c2c1 [Cpd 10, (1R,2R)-N-[6-(4-cyano-2-ethyl-phenoxy)-1-methyl-benzimidazol-4-yl]-2-fluoro-cyclopropanecarboxamide] showed an IC50 of 0.1 to 50 nM. CN(c1cc(NC(=O)[C@H]2C[C@H]2F)c2ncn(C)c2c1)c1c(F)cc(C#N)cc1Cl [Cpd 11, (1R,2R)-N-[6-(2-chloro-4-cyano-6-fluoro-N-methyl-anilino)-1-methyl-benzimidazol-4-yl]-2-fluoro-cyclopropanecarboxamide] was tested, and the IC50 was 0.1 to 50 nM. For Cc1cc(F)ncc1N(C)c1cc(NC(=O)[C@H]2C[C@H]2F)c2ncn(C)c2c1 [Cpd 12, (1R,2R)-2-fluoro-N-[6-[(6-fluoro-4-methyl-3-pyridyl)-methyl-amino]-1-methyl-benzimidazol-4-yl]cyclopropanecarboxamide], the IC50 was 50 to 100 nM. For CN(c1cc(NC(=O)[C@H]2C[C@H]2F)c2ncn(C)c2c1)c1ccc(F)nc1F [Cpd 13, (1R,2R)-N-[6-[(2,6-difluoro-3-pyridyl)-methyl-amino]-1-methyl-benzimidazol-4-yl]-2-fluoro-cyclopropanecarboxamide], the IC50 was 100 to 500 nM. CN(c1cc(NC(=O)[C@H]2C[C@H]2F)c2ncn(C)c2c1)c1ccc(C#N)nc1F [Cpd 14, (1R,2R)-N-[6-[(6-cyano-2-fluoro-3-pyridyl)-methyl-amino]-1-methyl-benzimidazol-4-yl]-2-fluoro-cyclopropanecarboxamide] gave an IC50 of 50 to 100 nM. CN(c1cc(NC(=O)[C@H]2C[C@H]2F)c2ncn(C)c2c1)c1ccc(C#N)cc1F [Cpd 15, (1R,2R)-N-[6-(4-cyano-2-fluoro-N-methyl-anilino)-1-methyl-benzimidazol-4-yl]-2-fluoro-cyclopropanecarboxamide] was tested, and the IC50 was 100 to 500 nM. With Cc1cc(S(C)(=O)=O)cc(F)c1N(C)c1cc(NC(=O)[C@H]2C[C@H]2F)c2ncn(C)c2c1 [Cpd 16, (1R,2R)-2-fluoro-N-[6-(2-fluoro-N,6-dimethyl-4-methylsulfonyl-anilino)-1-methyl-benzimidazol-4-yl]cyclopropanecarboxamide] the IC50 was 0.1 to 50 nM. CN(c1cc(NC(=O)[C@H]2C[C@H]2F)c2ncn(C)c2c1)c1ccc(S(C)(=O)=O)cc1F [Cpd 17, (1R,2R)-2-fluoro-N-[6-(2-fluoro-N-methyl-4-methylsulfonyl-anilino)-1-methyl-benzimidazol-4-yl]cyclopropanecarboxamide] showed an IC50 of over 500 nM. With CCc1cc(S(C)(=O)=O)ncc1N(C)c1cc(NC(=O)C2CC2)c2ncn(C)c2c1 [Cpd 18, N-[6-[(4-ethyl-6-methylsulfonyl-3-pyridyl)-methyl-amino]-1-methyl-benzimidazol-4-yl]cyclopropanecarboxamide] the IC50 was 0.1 to 50 nM. Molecule Cc1cc(S(C)(=O)=O)cc(F)c1N(C)c1cc(NC(=O)C2CC2)c2ncn(C)c2c1 [Cpd 19, N-[6-(2-fluoro-N,6-dimethyl-4-methylsulfonyl-anilino)-1-methyl-benzimidazol-4-yl]cyclopropanecarboxamide] has an IC50 of 0.1 to 50 nM. Cc1cc(C#N)ncc1Oc1cc(NC(=O)[C@H]2C[C@H]2F)c2ncn(C)c2c1 [Cpd 20, (1R,2R)-N-[6-[(6-cyano-4-methyl-3-pyridyl)oxy]-1-methyl-benzimidazol-4-yl]-2-fluoro-cyclopropanecarboxamide] gave an IC50 of 50 to 100 nM. Work on Cc1cc(C#N)nc(F)c1N(C)c1cc(NC(=O)[C@H]2C[C@H]2F)c2ncn(C)c2c1 [Cpd 21, (1R,2R)-N-[6-[(6-cyano-2-fluoro-4-methyl-3-pyridyl)-methyl-amino]-1-methyl-benzimidazol-4-yl]-2-fluoro-cyclopropanecarboxamide] yielded an IC50 of 0.1 to 50 nM. Molecule Cc1cnc(C#N)c(F)c1N(C)c1cc(NC(=O)[C@H]2C[C@H]2F)c2ncn(C)c2c1 [Cpd 22, (1R,2R)-N-[6-[(2-cyano-3-fluoro-5-methyl-4-pyridyl)-methyl-amino]-1-methyl-benzimidazol-4-yl]-2-fluoro-cyclopropanecarboxamide] has an IC50 of 0.1 to 50 nM. Cc1cc(C#N)ncc1Oc1cc(NC(=O)C2CC2)c2ncn(C)c2c1 [Cpd 23, N-[6-[(6-cyano-4-methyl-3-pyridyl)oxy]-1-methyl-benzimidazol-4-yl]cyclopropanecarboxamide] showed an IC50 of 50 to 100 nM. Molecule CCc1cc(C(N)=O)ncc1N(C)c1cc(NC(=O)C2CC2)c2ncn(C)c2c1 [Cpd 24, 5-((4-(cyclopropanecarboxamido)-1-methyl-1H-benzo[d]imidazol-6-yl)(methyl)amino)-4-ethylpicolinamide] has an IC50 of 0.1 to 50 nM.
